Molecules are shown by their SMILES.

This passage reports EC50 results from patent US20250163066A1, “PROTACs of MALT1” (TEGID THERAPEUTICS, INC., priority 2022, published 2025).

Sequence of MALT1 (Q9UDY8 whole entry): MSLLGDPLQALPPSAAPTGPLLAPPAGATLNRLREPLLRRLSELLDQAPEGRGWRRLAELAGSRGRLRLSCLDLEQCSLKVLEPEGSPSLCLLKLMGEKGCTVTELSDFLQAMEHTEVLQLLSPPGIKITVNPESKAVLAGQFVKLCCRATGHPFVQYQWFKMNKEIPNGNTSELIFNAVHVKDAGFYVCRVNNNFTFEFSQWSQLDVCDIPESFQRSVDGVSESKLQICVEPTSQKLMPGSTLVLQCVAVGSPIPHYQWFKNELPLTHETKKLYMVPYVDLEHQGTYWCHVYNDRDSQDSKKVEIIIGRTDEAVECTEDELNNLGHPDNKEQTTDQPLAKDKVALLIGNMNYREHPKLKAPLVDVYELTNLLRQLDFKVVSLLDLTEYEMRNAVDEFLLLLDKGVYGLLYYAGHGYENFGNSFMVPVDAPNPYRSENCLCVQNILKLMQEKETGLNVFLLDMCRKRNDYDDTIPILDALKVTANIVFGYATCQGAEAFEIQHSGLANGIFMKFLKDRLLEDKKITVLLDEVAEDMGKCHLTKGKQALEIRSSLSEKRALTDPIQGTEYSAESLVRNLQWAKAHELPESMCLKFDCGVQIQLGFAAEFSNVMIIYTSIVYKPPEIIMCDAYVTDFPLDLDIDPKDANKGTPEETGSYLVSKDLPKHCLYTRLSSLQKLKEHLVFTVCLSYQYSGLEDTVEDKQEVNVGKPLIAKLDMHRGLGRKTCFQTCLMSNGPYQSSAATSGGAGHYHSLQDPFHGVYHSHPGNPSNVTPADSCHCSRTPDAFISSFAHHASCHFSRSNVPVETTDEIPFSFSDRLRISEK

The target in this experiment is MALT1 (Homo sapiens (Human), UniProt Q9UDY8). Put plainly: MALT1 enzymatic activity inhibition (fluorescence, Ac-LRSR-AMC substrate). It is filed as biochemical. The following applies: recombinant MALT1 1.5 ng/μl, Ac-LRSR-AMC 1 μM. Put shortly:
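Recombinant human MALT1 (1.5 ng/μl final) preincubated 10 min at rt with compounds in 50 mM HEPES pH 7.2-7.4, 100 mM NaCl, 900 mM sodium citrate, 10 mM DTT; 1 μM Ac-LRSR-AMC then added. AMC fluorescence read at start and after 30 min 37 °C plus 30 min rt; difference gives signal, % inhibition fitted to IC50.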
Regarding `Cc1cc(NC(=O)Nc2cnc3ccnn3c2C2CCCCC2)cnc1-c1noc(CCCCC(=O)Nc2ccc3c(c2)CN(C2CCC(=O)NC2=O)C3=O)n1` (centres unmarked) [Compound 125, 5-[3-[5-[(7-cyclohexylpyrazolo[1,5-a]pyrimidin-6-yl)carbamoylamino]-3-methyl-2-pyridyl]-1,2,4-oxadiazol-5-yl]-N-[2-(2,6-dioxo-3-piperidyl)-1-oxo-isoindolin-5-yl]pentanamide], the EC50 (usually the midpoint of the concentration-response curve) lay within 0.5 to 1 µM. Next, `Cc1cc(NC(=O)Nc2cnc3ccnn3c2C2CCCCC2)cnc1-c1noc(CCCC(=O)N2CCN(c3ccc4c(c3)CN(C3CCC(=O)NC3=O)C4=O)CC2)n1` (centres unmarked) [Compound 126, 1-(7-cyclohexylpyrazolo[1,5-a]pyrimidin-6-yl)-3-[6-[5-[4-[4-[2-(2,6-dioxo-3-piperidyl)-1-oxo-isoindolin-5-yl]piperazin-1-yl]-4-oxo-butyl]-1,2,4-oxadiazol-3-yl]-5-methyl-3-pyridyl]urea]: 0.5 to 1 µM. With `Cc1cc(NC(=O)Nc2cnc3ccnn3c2C(C)(C)C)cnc1-c1noc(CCCCC(=O)N2CCN(c3ccc4c(c3)CN(C3CCC(=O)NC3=O)C4=O)CC2)n1` (centres unmarked) [Compound 127, 1-(7-tert-butylpyrazolo[1,5-a]pyrimidin-6-yl)-3-[6-[5-[5-[4-[2-(2,6-dioxo-3-piperidyl)-1-oxo-isoindolin-5-yl]piperazin-1-yl]-5-oxo-pentyl]-1,2,4-oxadiazol-3-yl]-5-methyl-3-pyridyl]urea], the EC50 lay in the range of 1 to 5 µM.

As to `O=C1CCC(N2Cc3cc(N4CCN(C(=O)CCCCCc5nnc(-c6ccc(NC(=O)Nc7cnc8ccnn8c7C7CCCC7)cn6)s5)CC4)ccc3C2=O)C(=O)N1` (centres unmarked) [Compound 128, 1-(7-cyclopentylpyrazolo[1,5-a]pyrimidin-6-yl)-3-[6-[5-[6-[4-[2-(2,6-dioxo-3-piperidyl)-1-oxo-isoindolin-5-yl]piperazin-1-yl]-6-oxo-hexyl]-1,3,4-thiadiazol-2-yl]-3-pyridyl]urea], the EC50 was 1 to 5 µM.

Take `CC(C)c1c(NC(=O)Nc2ccc(-c3nnc(CCCCCC(=O)N4CCN(c5ccc6c(c5)CN(C5CCC(=O)NC5=O)C6=O)CC4)s3)nc2)cnc2ccnn12` (centres unmarked) [Compound 129, 1-[6-[5-[6-[4-[2-(2,6-dioxo-3-piperidyl)-1-oxo-isoindolin-5-yl]piperazin-1-yl]-6-oxo-hexyl]-1,3,4-thiadiazol-2-yl]-3-pyridyl]-3-(7-isopropylpyrazolo[1,5-a]pyrimidin-6-yl)urea]: the concentration for a half-maximal effect (EC50) fell in the range of 1 to 5 µM. Regarding `Cc1cc(NC(=O)Nc2cnc3ccnn3c2C(C)C)cnc1-c1noc(CCCCC(=O)N2CCN(c3ccc4c(c3)CN(C3CCC(=O)N(COC(=O)C(C)(C)C)C3=O)C4=O)CC2)n1` (centres unmarked) [Compound 130, [3-[5-[4-[5-[3-[5-[(7-isopropylpyrazolo[1,5-a]pyrimidin-6-yl)carbamoylamino]-3-methyl-2-pyridyl]-1,2,4-oxadiazol-5-yl]pentanoyl]piperazin-1-yl]-1-oxo-isoindolin-2-yl]-2,6-dioxo-1-piperidyl]methyl 2,2-dimethylpropanoate], the EC50 is at most 0.2 µM. As to `Cc1cc(NC(=O)Nc2cnc3ccnn3c2C(C)C)cnc1-c1noc(CCCCCC(=O)N2CCN(c3ccc4c(c3)CN(C3CCC(=O)N(COC(=O)C(C)(C)C)C3=O)C4=O)CC2)n1` (centres unmarked) [Compound 131, [3-[5-[4-[6-[3-[5-[(7-isopropylpyrazolo[1,5-a]pyrimidin-6-yl)carbamoylamino]-3-methyl-2-pyridyl]-1,2,4-oxadiazol-5-yl]hexanoyl]piperazin-1-yl]-1-oxo-isoindolin-2-yl]-2,6-dioxo-1-piperidyl]methyl 2,2-dimethylpropanoate], the EC50 was at most 0.2 µM. `Cc1cc(NC(=O)Nc2cnc3ccnn3c2C2CCCCC2)cnc1-c1noc(CCCCCN2CCN(c3ccc4c(c3)CN(C3CCC(=O)NC3=O)C4=O)CC2)n1` (centres unmarked) [Compound 132, 1-(7-cyclohexylpyrazolo[1,5-a]pyrimidin-6-yl)-3-[6-[5-[5-[4-[2-(2,6-dioxo-3-piperidyl)-1-oxo-isoindolin-5-yl]piperazin-1-yl]pentyl]-1,2,4-oxadiazol-3-yl]-5-methyl-3-pyridyl]urea]: the EC50 was in the range of 0.2 to 0.5 µM. Turning to `O=C1CCC(N2Cc3cc(N4CCN(CCCCCCc5nc(-c6ncc(NC(=O)Nc7cnc8ccnn8c7C7CCCC7)cc6C(F)(F)F)no5)CC4)ccc3C2=O)C(=O)N1` (centres unmarked) [Compound 133, 1-(7-cyclopentylpyrazolo[1,5-a]pyrimidin-6-yl)-3-[6-[5-[6-[4-[2-(2,6-dioxo-3-piperidyl)-1-oxo-isoindolin-5-yl]piperazin-1-yl]hexyl]-1,2,4-oxadiazol-3-yl]-5-(trifluoromethyl)-3-pyridyl]urea], the EC50 was at most 0.2 µM. With `CC(C)(C)C(=O)OCN1C(=O)CCC(N2Cc3cc(N4CCN(C(=O)CCCCc5nc(-c6ncc(NC(=O)Nc7cnc8ccnn8c7C7CCCC7)cc6Cl)no5)CC4)ccc3C2=O)C1=O` (centres unmarked) [Compound 134, [3-[5-[4-[5-[3-[3-chloro-5-[(7-cyclopentylpyrazolo[1,5-a]pyrimidin-6-yl)carbamoylamino]-2-pyridyl]-1,2,4-oxadiazol-5-yl]pentanoyl]piperazin-1-yl]-1-oxo-isoindolin-2-yl]-2,6-dioxo-1-piperidyl]methyl 2,2-dimethylpropanoate], the EC50 was at most 0.2 µM.

On to `CC(C)c1c(NC(=O)Nc2cnc(-c3noc(CCCC(=O)N4CCN(c5ccc6c(c5)CN(C5CCC(=O)N(C)C5=O)C6=O)CC4)n3)c(Cl)c2)cnc2ccnn12` (centres unmarked) [Compound 135, 1-[5-chloro-6-[5-[4-[4-[2-(1-methyl-2,6-dioxo-3-piperidyl)-1-oxo-isoindolin-5-yl]piperazin-1-yl]-4-oxo-butyl]-1,2,4-oxadiazol-3-yl]-3-pyridyl]-3-(7-isopropylpyrazolo[1,5-a]pyrimidin-6-yl)urea], for which the EC50 is at most 0.2 µM.

Consider `CC(C)c1c(NC(=O)Nc2cnc(-c3noc(CCCCC(=O)N4CCN(c5ccc6c(c5)CN(C5CCC(=O)N(C)C5=O)C6=O)CC4)n3)c(Cl)c2)cnc2ccnn12` (centres unmarked) [Compound 136, 1-[5-chloro-6-[5-[5-[4-[2-(1-methyl-2,6-dioxo-3-piperidyl)-1-oxo-isoindolin-5-yl]piperazin-1-yl]-5-oxo-pentyl]-1,2,4-oxadiazol-3-yl]-3-pyridyl]-3-(7-isopropylpyrazolo[1,5-a]pyrimidin-6-yl)urea], for which the EC50 was at most 0.2 µM.

For the compound `CC(C)c1c(NC(=O)Nc2cnc(-c3noc(CCCC(=O)N4CCN(c5ccc6c(c5)CN(C5CCC(=O)N(COC(=O)C(C)(C)C)C5=O)C6=O)CC4)n3)c(Cl)c2)cnc2ccnn12` (centres unmarked) [Compound 137, [3-[5-[4-[4-[3-[3-chloro-5-[(7-isopropylpyrazolo[1,5-a]pyrimidin-6-yl)carbamoylamino]-2-pyridyl]-1,2,4-oxadiazol-5-yl]butanoyl]piperazin-1-yl]-1-oxo-isoindolin-2-yl]-2,6-dioxo-1-piperidyl]methyl 2,2-dimethylpropanoate], the EC50 is at most 0.2 µM.

As to `CC(C)c1c(NC(=O)Nc2cnc(-c3noc(CCCCC(=O)N4CCN(c5ccc6c(c5)CN(C5CCC(=O)N(COC(=O)C(C)(C)C)C5=O)C6=O)CC4)n3)c(Cl)c2)cnc2ccnn12` (centres unmarked) [Compound 138, [3-[5-[4-[5-[3-[3-chloro-5-[(7-isopropylpyrazolo[1,5-a]pyrimidin-6-yl)carbamoylamino]-2-pyridyl]-1,2,4-oxadiazol-5-yl]pentanoyl]piperazin-1-yl]-1-oxo-isoindolin-2-yl]-2,6-dioxo-1-piperidyl]methyl 2,2-dimethylpropanoate], the concentration giving a half-maximal response (EC50) is at most 0.2 µM.
